pIC50: −log10 of the molar value. Where two headings read alike, the source gives them in different places.
Assays:
[1] = target: T1, baculovirus-expressed ALK (Homo sapiens, UniProt Q9UM73); assay: ALK Kinase Assay (ELISA-type, time-resolved fluorescence); type: biochemical
T1 construct: host or cells: baculovirus expression system
Procedure, shortened: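 Wells were coated with phospholipase C-γ at 10 μg/mL in Tris-buffered saline. Adding 30 ng/ml enzyme started the reaction, which ran at 37° C for 15 minutes before Eu-N1 PT66 antibody detection. Percent inhibition versus log10 concentration gave IC50 by variable-slope fit.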

[2] = target: T2, c-Met (cytoplasmic domain) (Homo sapiens, UniProt P08581); assay: c-Met Kinase Assay (same methods as for ALK, with modifications); type: biochemical
T2 construct: 10 ng/mL c-Met (cytoplasmic domain, Invitrogen Corporation #PV3143); purchased Invitrogen Corporation PV3143
T2 sequence (P08581 956-1390 limits assumed): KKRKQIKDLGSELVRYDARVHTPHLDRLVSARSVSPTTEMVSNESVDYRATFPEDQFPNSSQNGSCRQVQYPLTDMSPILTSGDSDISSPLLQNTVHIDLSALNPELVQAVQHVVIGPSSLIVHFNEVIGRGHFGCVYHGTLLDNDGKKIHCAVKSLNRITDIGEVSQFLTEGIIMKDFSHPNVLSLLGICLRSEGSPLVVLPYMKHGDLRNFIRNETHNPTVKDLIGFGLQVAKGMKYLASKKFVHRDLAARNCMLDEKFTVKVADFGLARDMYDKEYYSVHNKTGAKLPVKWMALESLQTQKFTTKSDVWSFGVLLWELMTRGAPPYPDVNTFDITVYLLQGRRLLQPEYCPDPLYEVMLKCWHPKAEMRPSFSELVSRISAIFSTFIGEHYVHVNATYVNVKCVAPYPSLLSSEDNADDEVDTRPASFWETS
Procedure, shortened: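 IC50 values were fitted by variable-slope sigmoidal regression of percent inhibition against log compound concentration. Phosphorylation was read with Eu-N1 PT66 antibody after a 15 min, 37 °C reaction. The reaction was initiated with 10 ng/mL c-Met cytoplasmic domain on wells coated with 10 μg/mL PLC-γ in TBS.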

[3] = 1 μM ATP (Km level), read-out: ALK Activity (ALK Kinase Inhibition, IC50)
[4] = 1 μM ATP (Km level), read-out: cMet Activity (c-Met Kinase Inhibition, IC50)
[5] = ALK kinase inhibition, 1 μM ATP, read-out: ALK Activity
[6] = c-Met kinase inhibition, 1 μM ATP, read-out: cMet Activity
[7] = ALK kinase inhibition, 1 μM ATP (Km level), read-out: ALK Activity
[8] = c-Met kinase inhibition, 1 μM ATP (Km level), read-out: cMet Activity
[9] = 1 μM ATP (Km level), 30 ng/ml ALK, 37° C., 15 minutes, read-out: ALK Activity (ALK kinase inhibition, IC50 class)
[10] = 1 μM ATP (Km level), 10 ng/mL c-Met, read-out: cMet Activity (c-Met kinase inhibition, IC50 class)

T1 sequence (Q9UM73 19-1620): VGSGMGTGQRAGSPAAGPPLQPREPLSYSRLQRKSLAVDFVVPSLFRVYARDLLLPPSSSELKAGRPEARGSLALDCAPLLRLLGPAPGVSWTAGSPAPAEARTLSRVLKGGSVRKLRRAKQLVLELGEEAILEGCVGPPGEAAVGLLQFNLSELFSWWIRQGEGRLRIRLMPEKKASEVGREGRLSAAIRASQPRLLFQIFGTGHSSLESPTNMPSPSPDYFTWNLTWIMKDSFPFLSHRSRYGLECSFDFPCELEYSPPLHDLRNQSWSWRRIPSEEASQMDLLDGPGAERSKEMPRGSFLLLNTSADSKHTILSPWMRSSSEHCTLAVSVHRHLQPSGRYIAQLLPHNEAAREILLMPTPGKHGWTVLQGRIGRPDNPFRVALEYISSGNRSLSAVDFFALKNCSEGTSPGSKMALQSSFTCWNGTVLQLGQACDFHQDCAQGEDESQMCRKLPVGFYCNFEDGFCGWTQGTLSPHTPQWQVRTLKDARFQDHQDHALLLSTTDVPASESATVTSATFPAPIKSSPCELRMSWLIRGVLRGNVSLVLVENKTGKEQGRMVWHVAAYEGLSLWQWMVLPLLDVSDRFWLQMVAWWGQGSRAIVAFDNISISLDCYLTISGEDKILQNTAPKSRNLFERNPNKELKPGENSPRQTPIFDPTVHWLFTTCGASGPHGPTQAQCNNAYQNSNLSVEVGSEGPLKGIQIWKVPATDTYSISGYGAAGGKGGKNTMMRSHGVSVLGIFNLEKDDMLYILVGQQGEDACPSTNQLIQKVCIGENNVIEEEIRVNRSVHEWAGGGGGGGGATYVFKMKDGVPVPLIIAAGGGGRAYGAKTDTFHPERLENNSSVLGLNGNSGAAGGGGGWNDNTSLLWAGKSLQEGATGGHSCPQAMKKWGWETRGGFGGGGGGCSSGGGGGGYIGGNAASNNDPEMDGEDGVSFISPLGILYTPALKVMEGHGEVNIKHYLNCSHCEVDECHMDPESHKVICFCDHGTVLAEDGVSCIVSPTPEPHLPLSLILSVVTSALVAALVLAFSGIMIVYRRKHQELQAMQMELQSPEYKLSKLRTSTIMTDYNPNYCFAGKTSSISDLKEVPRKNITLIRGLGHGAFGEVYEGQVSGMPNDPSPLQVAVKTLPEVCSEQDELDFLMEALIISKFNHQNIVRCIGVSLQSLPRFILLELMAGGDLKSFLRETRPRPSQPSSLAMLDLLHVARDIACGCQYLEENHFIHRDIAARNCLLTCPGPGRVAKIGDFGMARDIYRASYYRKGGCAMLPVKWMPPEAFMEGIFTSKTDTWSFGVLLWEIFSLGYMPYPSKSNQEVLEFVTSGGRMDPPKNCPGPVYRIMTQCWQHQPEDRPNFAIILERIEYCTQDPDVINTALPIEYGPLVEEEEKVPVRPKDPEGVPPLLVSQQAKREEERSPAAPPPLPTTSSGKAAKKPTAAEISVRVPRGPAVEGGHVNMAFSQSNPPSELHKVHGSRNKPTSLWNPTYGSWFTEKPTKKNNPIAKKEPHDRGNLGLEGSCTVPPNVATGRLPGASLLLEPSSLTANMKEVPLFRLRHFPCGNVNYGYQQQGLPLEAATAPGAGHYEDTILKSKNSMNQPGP

`COc1cc2c(cc1Nc1ncc(Cl)c(Nc3ccc(Cl)cc3S(=O)(=O)N(C)C)n1)CCN(CC(=O)N(C)C)CC2` [Example 832, 2-{7-[5-Chloro-4-(4-chloro-2-dimethylsulfamoyl-phenylamino)-pyrimidin-2-ylamino]-8-methoxy-1,2,4,5-tetrahydro-benzo[d]azepin-3-yl}-N,N-dimethyl-acetamide] showed a pIC50 [1, 3] greater than 7.00 and a pIC50 [2, 4] of less than 5.00.

Work on `CN([C@@H]1CCCC[C@H]1Nc1nc(Nc2ccc3c(c2)C(C)(C)CCC(=O)N3)ncc1Cl)S(C)(=O)=O` [Example 1674, N-{(1R,2R)-2-[5-Chloro-2-(5,5-dimethyl-2-oxo-2,3,4,5-tetrahydro-1H-benzo[b]azepin-7-ylamino)-pyrimidin-4-ylamino]-cyclohexyl}-N-methyl-methanesulfonamide] yielded a pIC50 [1, 5] greater than 7.00 and a pIC50 [2, 6] of 5.00 to 6.00.

For `CNC(=O)c1sccc1Nc1nc(Nc2ccc3c(c2)NC(=O)CN(C(C)=O)C3)ncc1Cl` [Example 1849, 3-[2-(4-Acetyl-2-oxo-2,3,4,5-tetrahydro-1H-benzo[e][1,4]diazepin-8-ylamino)-5-chloro-pyrimidin-4-ylamino]-thiophene-2-carboxylic acid methyl amide], the pIC50 [1, 5] was 6.00 to 7.00 and the pIC50 [2, 6] was greater than 7.00.

For `CN1C(=O)CCC(C)(C)c2cc(Nc3ncc(Cl)c(N[C@H]4[C@@H](C(N)=O)[C@@H]5C=C[C@H]4C5)n3)ccc21` (relative stereo) [Example 386, (2-exo, 3-exo)-3-[5-Chloro-2-(1,5,5-trimethyl-2-oxo-2,3,4,5-tetrahydro-1H-benzo[b]azepin-7-ylamino)-pyrimidin-4-ylamino]-bicyclo[2.2.1]hept-5-ene-2-carboxylic acid amide], the pIC50 [1, 7] was greater than 7.00 and the pIC50 [2, 8] was 6.00 to 7.00.

In the case of `CCN1C(=O)C(N)CCc2c1ccc(Nc1ncc(Cl)c(N[C@@H]3CCCC[C@H]3NS(C)(=O)=O)n1)c2OC` (stereo partly drawn) [Example 1338, N-{(1R,2R)-2-[2-(3-Amino-1-ethyl-6-methoxy-2-oxo-2,3,4,5-tetrahydro-1H-benzo[b]azepin-7-ylamino)-5-chloro-pyrimidin-4-ylamino]-cyclohexyl}-methanesulfonamide], the pIC50 [1, 9] was 6.00 to 7.00 and the pIC50 [2, 10] was less than 5.00.

Work on `CNC(=O)c1cc(C)cc(C)c1Nc1nc(Nc2ccc3c(c2)CN(C)C(=O)CC3)ncc1Cl` [Example 1801, 2-[5-Chloro-2-(2-methyl-3-oxo-2,3,4,5-tetrahydro-1H-benzo[c]azepin-8-ylamino)-pyrimidin-4-ylamino]-3,5,N-trimethyl-benzamide] yielded a pIC50 [1, 5] of 5.00 to 6.00 and a pIC50 [2, 6] of less than 5.00.

Molecule `CNC(=O)c1ccccc1N(C)c1nc(Nc2ccc3c(c2)CC(=O)N(C)CC3)ncc1F` [Example 1824, 2-{[5-Fluoro-2-(3-methyl-4-oxo-2,3,4,5-tetrahydro-1H-benzo[d]azepin-7-ylamino)-pyrimidin-4-yl]-methyl-amino}-N-methyl-benzamide] has a pIC50 [1, 5] of 5.00 to 6.00 and a pIC50 [2, 6] of less than 5.00.

For `COc1cc2c(cc1Nc1ncc(F)c(Nc3ccc(N4CCOCC4)cc3OC)n1)CCN(CC(=O)OC(C)C)CC2` [Example 811, {7-[5-Fluoro-4-(2-methoxy-4-morpholin-4-yl-phenylamino)-pyrimidin-2-ylamino]-8-methoxy-1,2,4,5-tetrahydro-benzo[d]azepin-3-yl}-acetic acid isopropyl ester], the pIC50 [1, 3] was 6.00 to 7.00 and the pIC50 [2, 4] was less than 5.00.

Work on `COCCN1C(=O)CCC(C)(C)c2ccc(Nc3ncc(Cl)c(N[C@H]4[C@@H](C(N)=O)[C@@H]5C=C[C@H]4C5)n3)cc21` [Example 1583, (1S,2S,3R,4R)-3-{5-Chloro-2-[1-(2-methoxy-ethyl)-5,5-dimethyl-2-oxo-2,3,4,5-tetrahydro-1H-benzo[b]azepin-8-ylamino]-pyrimidin-4-ylamino}-bicyclo[2.2.1]hept-5-ene-2-carboxylic acid amide] yielded a pIC50 [1, 5] greater than 7.00 and a pIC50 [2, 6] of 6.00 to 7.00.

`CC1(C)NC(=O)CCc2ccc(Nc3ncc(Cl)c(NC4C5C=CC(C5)C4C(N)=O)n3)cc21` (stereo not shown) [Example 1832, 3-(5-Chloro-2-(1,1-dimethyl-3-oxo-2,3,4,5-tetrahydro-1H-benzo[c]azepin-8-ylamino)pyrimidin-4-ylamino)bicyclo[2.2.1]hept-5-ene-2-carboxamide] was tested, and the pIC50 [1, 5] was greater than 7.00 and the pIC50 [2, 6] was greater than 7.00.

In the case of `CNC(=O)c1ccccc1Nc1nc(Nc2ccc3c(c2Cl)C2CCC(C3)N2)ncc1Cl` (stereo not shown) [Example 81, 2-[5-Chloro-2-(3-chloro-12-aza-tricyclo[7.2.1.0*2,7*]dodeca-2(7),3,5-trien-4-ylamino)-pyrimidin-4-ylamino]-N-methyl-benzamide], the pIC50 [1, 7] was greater than 7.00 and the pIC50 [2, 8] was 6.00 to 7.00.

Work on `CCN1CCc2ccc(Nc3ncc(Cl)c(N[C@@H]4c5ccccc5C[C@@H]4O)n3)cc2CC1` [Example 235, (1R,2S)-1-[5-Chloro-2-(3-ethyl-2,3,4,5-tetrahydro-1H-benzo[d]azepin-7-ylamino)-pyrimidin-4-ylamino]-indan-2-ol] yielded a pIC50 [1, 7] greater than 7.00 and a pIC50 [2, 8] of 5.00 to 6.00.

`CCN(CCO)Cc1cc(Nc2nc(Nc3cc4c(cc3OC)CCN(CC(=O)N(C)C)CC4)ncc2Cl)ccc1F` [Example 735, 2-{7-[5-Chloro-4-(3-{[ethyl-(2-hydroxy-ethyl)-amino]-methyl}-4-fluoro-phenylamino)-pyrimidin-2-ylamino]-8-methoxy-1,2,4,5-tetrahydro-benzo[d]azepin-3-yl}-N,N-dimethyl-acetamide] showed a pIC50 [1, 3] greater than 7.00 and a pIC50 [2, 4] of less than 5.00.

`CNC(=O)c1cccc(F)c1Nc1nc(Nc2ccc3c(c2)C(C)(C)NC(=O)CC3)ncc1Cl` [Example 1831, 2-(5-Chloro-2-(1,1-dimethyl-3-oxo-2,3,4,5-tetrahydro-1H-benzo[c]azepin-8-ylamino)pyrimidin-4-ylamino)-3-fluoro-N-methylbenzamide] gave a pIC50 [1, 5] of 5.00 to 6.00 and a pIC50 [2, 6] greater than 7.00.

Molecule `CNC(=O)c1cccc(F)c1Nc1nc(Nc2ccc3c(c2)CCCC(=O)N3CCOC)ncc1Br` [Example 1472, 2-{5-Bromo-2-[1-(2-methoxy-ethyl)-2-oxo-2,3,4,5-tetrahydro-1H-benzo[b]azepin-7-ylamino]-pyrimidin-4-ylamino}-3-fluoro-N-methyl-benzamide] has a pIC50 [1, 5] greater than 7.00 and a pIC50 [2, 6] greater than 7.00.

Molecule `CCN1C(=O)CN(CC(=O)N(C)C)Cc2cc(OC)c(Nc3ncc(Cl)c(Nc4ccc(N5CCOCC5)cc4OC)n3)cc21` [Example 727, 2-{8-[5-Chloro-4-(2-methoxy-4-morpholin-4-yl-phenylamino)-pyrimidin-2-ylamino]-1-ethyl-7-methoxy-2-oxo-1,2,3,5-tetrahydro-benzo[e][1,4]diazepin-4-yl}-N,N-dimethyl-acetamide] has a pIC50 [1, 3] of 6.00 to 7.00 and a pIC50 [2, 4] of less than 5.00.

In the case of `CC(=O)N1CCC(=O)NCc2cc(Nc3ncc(Cl)c(Nc4c(C)cccc4OCC#N)n3)ccc21` [Example 1246, {2-[2-(1-Acetyl-4-oxo-1,2,3,4,5,6-hexahydro-benzo[b][1,5]diazocin-8-ylamino)-5-chloro-pyrimidin-4-ylamino]-3-methyl-phenoxy}-acetonitrile], the pIC50 [1, 9] was 6.00 to 7.00 and the pIC50 [2, 10] was greater than 7.00.

`Cn1ccnc1-c1ccccc1Nc1nc(Nc2ccc3c(c2)CCC(N2CCOCC2)CC3)ncc1Cl` (stereo not shown) [Example 218, 5-Chloro-N*4*-[2-(1-methyl-1H-imidazol-2-yl)-phenyl]-N*2*-(7-morpholin-4-yl-6,7,8,9-tetrahydro-5H-benzocyclohepten-2-yl)-pyrimidine-2,4-diamine] showed a pIC50 [1, 7] greater than 7.00 and a pIC50 [2, 8] of 6.00 to 7.00.

`C#CCNC(=O)c1cccc(F)c1Nc1nc(Nc2ccc3c(c2)N(C(=O)CN2CCCC2)CCCC3(C)C)ncc1Cl` [Example 1604, 2-{5-Chloro-2-[5,5-dimethyl-1-(2-pyrrolidin-1-yl-acetyl)-2,3,4,5-tetrahydro-1H-benzo[b]azepin-8-ylamino]-pyrimidin-4-ylamino}-3-fluoro-N-prop-2-ynyl-benzamide] showed a pIC50 [1, 5] of 6.00 to 7.00 and a pIC50 [2, 6] of 6.00 to 7.00.

`CNC(=O)c1cccc(F)c1Nc1nc(Nc2ccc3c(c2)N(C(=O)CN(C)C)CCCC3(C)C)ncc1Cl` [Example 1630, 2-{5-Chloro-2-[1-(2-dimethylamino-acetyl)-5,5-dimethyl-2,3,4,5-tetrahydro-1H-benzo[b]azepin-8-ylamino]-pyrimidin-4-ylamino}-3-fluoro-N-methyl-benzamide] gave a pIC50 [1, 5] of 6.00 to 7.00 and a pIC50 [2, 6] of 6.00 to 7.00.

Work on `C#CCNC(=O)c1cccc(F)c1Nc1nc(Nc2ccc3c(c2)OCCCN3CC)ncc1Cl` [Example 1407, 2-[5-Chloro-2-(9-ethyl-6,7,8,9-tetrahydro-5-oxa-9-aza-benzocyclohepten-3-ylamino)-pyrimidin-4-ylamino]-3-fluoro-N-prop-2-ynyl-benzamide] yielded a pIC50 [1, 9] of 6.00 to 7.00 and a pIC50 [2, 10] greater than 7.00.

With `CN1CCN(CCO)Cc2ccc(Nc3ncc(Cl)c(N[C@@H]4CCCC[C@H]4NS(C)(=O)=O)n3)cc21` [Example 478, N-((1R,2R)-2-{5-Chloro-2-[4-(2-hydroxy-ethyl)-1-methyl-2,3,4,5-tetrahydro-1H-benzo[e][1,4]diazepin-8-ylamino]-pyrimidin-4-ylamino}-cyclohexyl)-methanesulfonamide] the pIC50 [1, 7] was greater than 7.00 and the pIC50 [2, 8] was 5.00 to 6.00.

For `COc1cc2c(cc1Nc1ncc(Cl)c(N[C@@H]3CCCC[C@H]3NS(C)(=O)=O)n1)CCN(C(=O)CN(C)C)CC2` [Example 1125, N-((1R,2R)-2-{5-Chloro-2-[3-(2-dimethylamino-acetyl)-8-methoxy-2,3,4,5-tetrahydro-1H-benzo[d]azepin-7-ylamino]-pyrimidin-4-ylamino}-cyclohexyl)-methanesulfonamide], the pIC50 [1, 9] was greater than 7.00 and the pIC50 [2, 10] was less than 5.00.

From patent publication US8148391B2 (Cephalon, Inc., priority 2006, dated 2012)
